Assay type in all cases: cell-based
The target in one assay is hGLP-1R (Homo sapiens, UniProt P43220). The experiment in a line: Functional cAMP formation (HTRF) in HEK-293 clonal cells expressing hGLP-1R, 0.1% bovine casein, without or with 1.0% human serum albumin. More on the design: expressed in transfected cells. The settings on record: for EC50: cAMP, 0.1% bovine casein (no human serum albumin), geometric mean. Summed up: (§1)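 Cells were stimulated with peptide for 30 min at 37° C, then intracellular cAMP was measured by competitive HTRF (665/620 nm ratio) and converted to nM using a cAMP standard curve. Relative EC50 and Emax came from four-parameter logistic fits of percent maximal response against peptide concentration.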
hGLP-1R, sequence (P43220 24-463): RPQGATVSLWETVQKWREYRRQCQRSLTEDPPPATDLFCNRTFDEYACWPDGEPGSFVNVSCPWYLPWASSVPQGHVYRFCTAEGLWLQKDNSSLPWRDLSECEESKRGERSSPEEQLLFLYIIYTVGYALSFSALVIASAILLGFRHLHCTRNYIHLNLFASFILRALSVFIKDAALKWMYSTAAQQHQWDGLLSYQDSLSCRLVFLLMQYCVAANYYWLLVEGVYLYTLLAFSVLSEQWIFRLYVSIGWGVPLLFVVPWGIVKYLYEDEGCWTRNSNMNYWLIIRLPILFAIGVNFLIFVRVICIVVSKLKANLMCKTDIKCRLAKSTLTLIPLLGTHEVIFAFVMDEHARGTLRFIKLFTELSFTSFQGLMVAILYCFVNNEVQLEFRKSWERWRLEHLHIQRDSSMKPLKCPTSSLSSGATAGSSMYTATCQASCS

A further assay concerns the target T1, hGCGR (Homo sapiens, UniProt P47871).
T1 construct: expressed in transfected cells
The experiment in a line: Functional cAMP formation (HTRF) in HEK-293 clonal cells expressing hGCGR, 0.1% bovine casein, without or with 1.0% human serum albumin. Summed up: as §1
In general terms: cAMP levels reflect the balance of adenylyl cyclase and phosphodiesterase activity.

A further assay has as its target T2, hGIPR (Homo sapiens, UniProt P48546).
T2 construct: expressed in transfected cells
T2 sequence (P48546 22-466): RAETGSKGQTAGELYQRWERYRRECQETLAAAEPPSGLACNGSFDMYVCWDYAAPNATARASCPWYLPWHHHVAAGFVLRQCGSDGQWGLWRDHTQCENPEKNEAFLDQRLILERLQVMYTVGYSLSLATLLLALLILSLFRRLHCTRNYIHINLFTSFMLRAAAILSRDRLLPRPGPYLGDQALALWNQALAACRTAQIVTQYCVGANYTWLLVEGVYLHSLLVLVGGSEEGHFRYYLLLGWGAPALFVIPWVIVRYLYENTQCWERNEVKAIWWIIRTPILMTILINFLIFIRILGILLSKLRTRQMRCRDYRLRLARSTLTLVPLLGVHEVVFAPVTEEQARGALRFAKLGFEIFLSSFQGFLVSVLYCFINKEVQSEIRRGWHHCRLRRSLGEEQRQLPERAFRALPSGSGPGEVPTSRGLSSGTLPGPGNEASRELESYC
The experiment in a line: Functional cAMP formation (HTRF) in HEK-293 clonal cells expressing hGIPR, 0.1% bovine casein, without or with 1.0% human serum albumin. Summed up:
as §1

Like-named read-outs stand apart in the source and are kept apart here.

T1 sequence (P47871 26-477): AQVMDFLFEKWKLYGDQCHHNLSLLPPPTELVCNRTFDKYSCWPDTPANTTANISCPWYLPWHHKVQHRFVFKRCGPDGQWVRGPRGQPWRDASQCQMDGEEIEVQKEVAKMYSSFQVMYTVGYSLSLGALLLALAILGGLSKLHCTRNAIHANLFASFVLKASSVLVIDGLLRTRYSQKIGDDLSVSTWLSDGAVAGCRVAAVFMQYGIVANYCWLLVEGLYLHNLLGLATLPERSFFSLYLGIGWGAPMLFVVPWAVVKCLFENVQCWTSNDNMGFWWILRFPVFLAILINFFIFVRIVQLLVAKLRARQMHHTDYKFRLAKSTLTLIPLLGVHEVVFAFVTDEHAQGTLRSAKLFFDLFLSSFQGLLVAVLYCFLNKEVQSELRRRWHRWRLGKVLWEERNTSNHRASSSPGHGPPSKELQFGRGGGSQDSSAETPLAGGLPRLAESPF

Broadly, the Emax is the size of the effect at its maximum, as opposed to the concentration needed. One may read the EC50 as the concentration giving half of the maximal effect. Take `CC[C@H](C)[C@H](NC(=O)[C@H](CC(C)C)NC(=O)[C@](C)(Cc1ccc(O)cc1)NC(=O)[C@@H](CCC(=O)O)NC(=O)[C@@H](NC(=O)[C@H](Cc1ccccc1)NC(=O)[C@H](CCCN)NC(=O)C(C)(C)NC(=O)[C@H](CCC(N)=O)NC(=O)[C@H](C)NC(=O)[C@H](CCCCNC(=O)COCCOCCNC(=O)COCCOCCNC(=O)CC[C@H](NC(=O)CCCCCCCCCCCCC(=O)O)C(=O)O)NC(=O)[C@H](CCCN)NC(=O)[C@H](CC(=O)O)NC(=O)[C@H](CC(C)C)NC(=O)[C@](C)(CC(C)C)NC(=O)[C@@H](NC(=O)C(C)(C)NC(=O)[C@@H](NC(=O)[C@H](CC(=O)O)NC(=O)[C@H](CO)NC(=O)[C@@H](NC(=O)[C@](C)(Cc1ccccc1F)NC(=O)[C@@H](NC(=O)CNC(=O)[C@H](CCC(=O)O)NC(=O)C(C)(C)NC(=O)[C@@H](N)Cc1ccc(O)cc1)[C@@H](C)O)[C@@H](C)O)C(C)C)[C@@H](C)CC)[C@@H](C)CC)C(=O)N[C@@H](CCCCNC(=O)COCCOCCNC(=O)COCCOCCNC(=O)CC[C@H](NC(=O)CCCCCCCCCCCCC(=O)O)C(=O)O)C(=O)NCC(=O)NCC(=O)N1CCC[C@H]1C(=O)N[C@@H](CO)C(=O)N[C@@H](CO)C(=O)NCC(=O)N[C@@H](C)C(=O)N1CCC[C@H]1C(=O)N1CCC[C@H]1C(=O)N1CCC[C@H]1C(=O)N[C@@H](CO)C(N)=O` [Example 350]: the Emax on hGLP-1R (HEK293, cAMP, 37° C., 0.1% bovine casein and 1.0% human serum albumin, percent of maximal response to GLP-1(7-36)NH2, read-out: hGLP-1R Emax, % ± SEM) turned out to be 91.4%; at hGLP-1R (HEK293, cAMP, 37° C., 0.1% bovine casein, percent of maximal response to GLP-1(7-36)NH2, arithmetic mean, read-out: hGLP-1R Emax, % ± SEM), 95.9%; on hGIPR (HEK293, cAMP, 37° C., 0.1% bovine casein and 1.0% human serum albumin, percent of maximal response to GIP(1-42)NH2, read-out: hGIPR Emax, % ± SEM), 73.5%. For the same molecule, the EC50 was 0.202 nM at hGLP-1R (37° C., read-out: hGLP-1R EC50, nM (SEM, n)); > 9950 nM at hGCGR (cAMP, 37° C., 0.1% bovine casein (no human serum albumin), geometric mean, read-out: hGCGR EC50, nM (SEM, n)); > 9950 nM at hGCGR (cAMP, 37° C., 0.1% bovine casein and 1.0% human serum albumin, geometric mean (SEM, n), read-out: hGCGR EC50, nM (SEM, n)); 0.0288 nM at hGIPR (cAMP, 37° C., 0.1% bovine casein (no human serum albumin), geometric mean, read-out: hGIPR EC50, nM (SEM, n)).

Turning to `CC[C@H](C)[C@H](NC(=O)[C@H](CC(C)C)NC(=O)[C@](C)(Cc1ccc(O)cc1)NC(=O)[C@@H](CCC(=O)O)NC(=O)[C@@H](NC(=O)[C@](C)(Cc1ccccc1F)NC(=O)[C@H](CCC(=O)O)NC(=O)C(C)(C)NC(=O)[C@H](CCC(N)=O)NC(=O)[C@H](C)NC(=O)[C@H](CCCCNC(=O)COCCOCCNC(=O)COCCOCCNC(=O)CC[C@H](NC(=O)CCCCCCCCCCCCC(=O)O)C(=O)O)NC(=O)[C@H](CCCN)NC(=O)[C@H](CC(=O)O)NC(=O)[C@H](CC(C)C)NC(=O)[C@](C)(CC(C)C)NC(=O)[C@@H](NC(=O)[C@H](CO)NC(=O)[C@H](Cc1ccncc1)NC(=O)[C@H](CC(=O)O)NC(=O)[C@H](CO)NC(=O)[C@@H](NC(=O)[C@](C)(Cc1ccccc1F)NC(=O)[C@@H](NC(=O)CNC(=O)[C@H](CCC(=O)O)NC(=O)C(C)(C)NC(=O)[C@@H](N)Cc1ccc(O)cc1)[C@@H](C)O)[C@@H](C)O)[C@@H](C)CC)[C@@H](C)CC)C(=O)N[C@@H](CCC(=O)O)C(=O)NCC(=O)NCC(=O)N[C@@H](CCCCNC(=O)COCCOCCNC(=O)COCCOCCNC(=O)CC[C@H](NC(=O)CCCCCCCCCCCCC(=O)O)C(=O)O)C(=O)N[C@@H](CO)C(=O)N[C@@H](CO)C(=O)NCC(=O)N[C@@H](C)C(=O)N1CCC[C@H]1C(=O)N1CCC[C@H]1C(=O)N1CCC[C@H]1C(=O)N[C@@H](CO)C(N)=O` [Example 88], the Emax is 97.1% on hGLP-1R (HEK293, percent of maximal response to GLP-1(7-36)NH2, 37° C., 0.1% bovine casein, arithmetic mean, read-out: hGLP-1R Emax, % ± SEM); 80.3% on hGIPR (HEK293, 0.1% bovine casein and 1.0% human serum albumin, 37° C., percent of maximal response to GIP(1-42)NH2, read-out: hGIPR Emax, % ± SEM); 85.1% at hGIPR (HEK293, percent of maximal response to GIP(1-42)NH2, 37° C., 0.1% bovine casein, arithmetic mean, read-out: hGIPR Emax, % ± SEM). In addition, the EC50 is > 9950 nM on hGCGR (0.1% bovine casein and 1.0% human serum albumin, 37° C., geometric mean, read-out: hGCGR EC50, nM (SEM, n)); > 9950 nM at hGCGR (cAMP, incubated at 37° C., 0.1% bovine casein (no human serum albumin), geometric mean, read-out: hGCGR EC50, nM (SEM, n)); 0.591 nM at hGIPR (0.1% bovine casein and 1.0% human serum albumin, 37° C., geometric mean, read-out: hGIPR EC50, nM (SEM, n)).

On to `CC[C@H](C)[C@H](NC(=O)[C@H](CCCN)NC(=O)[C@H](CC(=O)O)NC(=O)[C@H](CC(C)C)NC(=O)[C@](C)(CC(C)C)NC(=O)[C@@H](NC(=O)C(C)(C)NC(=O)[C@H](Cc1ccc(O)cc1)NC(=O)[C@H](CC(=O)O)NC(=O)[C@H](CO)NC(=O)[C@@H](NC(=O)[C@](C)(Cc1ccccc1F)NC(=O)[C@@H](NC(=O)CNC(=O)[C@H](CCC(=O)O)NC(=O)C(C)(C)NC(=O)[C@@H](N)Cc1ccc(O)cc1)[C@@H](C)O)[C@@H](C)O)[C@@H](C)CC)C(=O)N[C@@H](C)C(=O)N[C@@H](CCC(N)=O)C(=O)NC(C)(C)C(=O)N[C@@H](CCC(=O)O)C(=O)N[C@@H](Cc1ccccc1)C(=O)N[C@H](C(=O)N[C@@H](CCCCNC(=O)COCCOCCNC(=O)CC[C@H](NC(=O)CCCCCCCCCOc1ccc(C(=O)O)cc1)C(=O)O)C(=O)N[C@@](C)(Cc1ccc(O)cc1)C(=O)N[C@@H](CC(C)C)C(=O)N[C@H](C(=O)N[C@@H](CCCCNC(=O)COCCOCCNC(=O)CC[C@H](NC(=O)CCCCCCCCCOc1ccc(C(=O)O)cc1)C(=O)O)C(=O)NCC(=O)NCC(=O)N1CCC[C@H]1C(=O)N[C@@H](CO)C(=O)N[C@@H](CO)C(=O)NCC(=O)N[C@@H](C)C(=O)N1CCC[C@H]1C(=O)N1CCC[C@H]1C(=O)N1CCC[C@H]1C(=O)N[C@@H](CO)C(N)=O)[C@@H](C)CC)[C@@H](C)CC` [Example 375], for which the Emax is 113% on hGLP-1R (HEK293, read-out: hGLP-1R Emax, % ± SEM, cAMP, 37° C., 0.1% bovine casein and 1.0% human serum albumin, percent of maximal response to GLP-1(7-36)NH2); 85.4% at hGIPR (HEK293, read-out: hGIPR Emax, % ± SEM, cAMP, 37° C., 0.1% bovine casein and 1.0% human serum albumin, percent of maximal response to GIP(1-42)NH2); 100% at hGIPR (HEK293, read-out: hGIPR Emax, % ± SEM, cAMP, 37° C., 0.1% bovine casein, percent of maximal response to GIP(1-42)NH2, arithmetic mean). Moreover, the EC50 was 1.11 nM at hGLP-1R (hGLP-1R EC50, nM (SEM, n), 37° C.); > 9950 nM on hGCGR (hGCGR EC50, nM (SEM, n), cAMP, 37° C., 0.1% bovine casein (no human serum albumin), geometric mean); > 9950 nM at hGCGR (hGCGR EC50, nM (SEM, n), cAMP, 37° C., 0.1% bovine casein and 1.0% human serum albumin, geometric mean (SEM, n)); 0.0566 nM at hGIPR (hGIPR EC50, nM (SEM, n), cAMP, 37° C., 0.1% bovine casein (no human serum albumin), geometric mean); 4.68 nM at hGIPR (hGIPR EC50, nM (SEM, n), cAMP, 37° C., 0.1% bovine casein and 1.0% human serum albumin, geometric mean (SEM, n)).
